Test results as given in patent publication US9296746B2, “Heterocyclic compound” (TAKEDA PHARMACEUTICAL COMPANY LIMITED, priority 2012, dated 2016).

Molecular target: T1, human CH24H (Homo sapiens, UniProt Q9Y6A2)
T1 construct: Using Full-Length Mammalian Gene Collection No. 4819975 (Invitrogen) as a template; made in house; host or cells: FreeStyle 293-F cells (transient transfection); cell lysate supernatant, not purified
Experiment: Measurement of CH24H inhibitory activity (24-HC produced from [14C] cholesterol by human CH24H lysate)
Type: biochemical
Conditions: test compound 1 μM, [14C] cholesterol 15 μM, 37° C., 5 hr, read-out: Inhibitory Rate (%) in 1 μM
Protocol: The expression of human CH24H was performed using FreeStyle 293 Expression System (Invitrogen). According to the manual attached to FreeStyle 293 Expression System and using the plasmid DNA for human CH24H expression (pcDNA3.1(+)/hCH24H) constructed in Experimental Example 1, a transient expression using FreeStyle 293-F cell was performed. After transfection, the cells were cultured at 37° C., 8% CO2 with shaking at 125 rpm for 2 days. The cells were collected by centrifugation, and suspended in a suspension buffer (100 mM potassium phosphate (pH 7.4), 0.1 mM EDTA, 1 mM DTT, 20% Glycerol). The suspended product was disrupted by a polytron homogenizer (manufactured by Kinematica), and centrifuged at 9000×g for 10 min, and the supernatant was collected. The collected supernatant was cryopreserved (−80° C.) as a human CH24H lysate standard product.
For the measurement of CH24H inhibitory activity, using the human CH24H lysate prepared in Experimental Example 2, the amount of 24-HC produced from cholesterol by catalytic activity of CH24H was measured in the presence of a test compound, and compared with that measured in the absence of the test compound. That is, a test compound solution at various concentrations was mixed with a reaction buffer (50 mM potassium phosphate containing 0.1% BSA and Complete, EDTA-free, pH 7.4) and human CH24H lysate. Then, [^14C] cholesterol (53 mCi/mmol specific activity, 15 μM) was added, and CH24H reaction was performed at 37° C. for 5 hr. After completion of the reaction, a quenching solution consisting of chloroform/methanol/distilled water (2:2:1 v/v) was added, and the resulting 24-HC was extracted by shaking. The extract was applied to silica gel thin layer chromatography (ethyl acetate:toluene=4:6), and the obtained ^14C-24HC fraction was measured with BAS2500 (Fujifilm Corporation).
The inhibitory rate (%) was calculated from the ratio of radioactivity in the presence of a test compound relative to the radioactivity in the absence of the test compound.

T1 sequence (Q9Y6A2 whole entry): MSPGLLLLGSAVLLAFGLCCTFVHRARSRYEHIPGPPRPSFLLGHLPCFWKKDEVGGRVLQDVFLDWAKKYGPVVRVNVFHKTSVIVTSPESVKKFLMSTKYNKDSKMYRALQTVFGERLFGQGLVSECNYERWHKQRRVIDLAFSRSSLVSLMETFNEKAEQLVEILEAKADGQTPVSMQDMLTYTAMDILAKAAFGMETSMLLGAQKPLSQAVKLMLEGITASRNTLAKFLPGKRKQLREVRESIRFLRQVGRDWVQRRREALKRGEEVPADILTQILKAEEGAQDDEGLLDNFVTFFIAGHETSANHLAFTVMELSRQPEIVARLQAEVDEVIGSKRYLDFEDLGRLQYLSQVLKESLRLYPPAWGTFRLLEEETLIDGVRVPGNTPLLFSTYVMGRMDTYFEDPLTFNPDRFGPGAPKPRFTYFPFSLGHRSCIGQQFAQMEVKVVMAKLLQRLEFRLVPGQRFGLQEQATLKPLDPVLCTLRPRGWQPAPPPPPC

| Compound | inhibition at 1 µM |
| --- | --- |
| CCOC(=O)c1cnc2c(-c3cnco3)cc(C(F)(F)F)cn12 [Example 1, ethyl 8-(1,3-oxazol-5-yl)-6-(trifluoromethyl)imidazo[1,2-a]pyridine-3-carboxylate] | 86% |
| O=C(c1cnc2c(-c3cnco3)cc(C(F)(F)F)cn12)N1CCCC1 [Example 2, (8-(1,3-oxazol-5-yl)-6-(trifluoromethyl)imidazo[1,2-a]pyridin-3-yl)(pyrrolidin-1-yl)methanone] | 89% |
| O=C(C1CC1)n1ccc2c(-c3cnco3)cc(C(F)(F)F)cc21 [Example 4, cyclopropyl(4-(1,3-oxazol-5-yl)-6-(trifluoromethyl)-1H-indol-1-yl)methanone] | 88% |
| O=C(c1cnc2c(-c3cnco3)cc(C(F)(F)F)cn12)N1CCOCC1 [Example 16, morpholin-4-yl(8-(1,3-oxazol-5-yl)-6-(trifluoromethyl)imidazo[1,2-a]pyridin-3-yl)methanone] | 87% |
| O=C(c1cnc2c(-c3cnco3)cc(C(F)(F)F)cn12)N1CC(F)(F)C1 [Example 21, (3,3-difluoroazetidin-1-yl)(8-(1,3-oxazol-5-yl)-6-(trifluoromethyl)imidazo[1,2-a]pyridin-3-yl)methanone] | 99% |
| O=C(c1cnc2c(-c3cnco3)cc(C(F)(F)F)cn12)N1CC2(COC2)C1 [Example 22, 2-oxa-6-azaspiro[3.3]hept-6-yl(8-(1,3-oxazol-5-yl)-6-(trifluoromethyl)imidazo[1,2-a]pyridin-3-yl)methanone] | 93% |
| O=C(NC1CCOCC1)c1cnc2c(-c3cnco3)cc(C(F)(F)F)cn12 [Example 44, 8-(1,3-oxazol-5-yl)-N-(tetrahydro-2H-pyran-4-yl)-6-(trifluoromethyl)imidazo[1,2-a]pyridine-3-carboxamide] | 93% |
| CN(C(=O)c1cnc2c(-c3cnco3)cc(C(F)(F)F)cn12)C1CCOCC1 [Example 47, N-methyl-8-(1,3-oxazol-5-yl)-N-(tetrahydro-2H-pyran-4-yl)-6-(trifluoromethyl)imidazo[1,2-a]pyridine-3-carboxamide] | 92% |
| O=C(c1nnc2c(-c3cnco3)cc(C(F)(F)F)cn12)N1C[C@@H]2C[C@H]1CO2 [Example 58, (1S,4S)-2-oxa-5-azabicyclo[2.2.1]hept-5-yl(8-(1,3-oxazol-5-yl)-6-(trifluoromethyl)[1,2,4]triazolo[4,3-a]pyridin-3-yl)methanone] | 80% |
| O=C(c1cnc2c(-c3cnco3)cc(C(F)(F)F)cn12)N1C[C@@H]2C[C@H]1CO2 [Example 71, (1S,4S)-2-oxa-5-azabicyclo[2.2.1]hept-5-yl(8-(1,3-oxazol-5-yl)-6-(trifluoromethyl)imidazo[1,2-a]pyridin-3-yl)methanone] | 88% |
| O=C(Nc1ccccc1)c1cnc2c(-c3cnco3)cc(C(F)(F)F)cn12 [Example 74, 8-(1,3-oxazol-5-yl)-N-phenyl-6-(trifluoromethyl)imidazo[1,2-a]pyridine-3-carboxamide] | 96% |
| Cc1cc(-c2cnco2)c2ncc(C(=O)N3C[C@@H]4C[C@H]3CO4)n2c1 [Example 78, (6-methyl-8-(1,3-oxazol-5-yl)imidazo[1,2-a]pyridin-3-yl)((1S,4S)-2-oxa-5-azabicyclo[2.2.1]hept-5-yl)methanone] | 94% |
| O=C(c1cnc2c(-c3cnco3)cc(C(F)(F)F)cn12)N1C2COCC1C2 [Example 86, 3-oxa-6-azabicyclo[3.1.1]hept-6-yl(8-(1,3-oxazol-5-yl)-6-(trifluoromethyl)imidazo[1,2-a]pyridin-3-yl)methanone] | 95% |
| O=C(c1cnc2c(-c3cnco3)cc(C(F)(F)F)cn12)N1CC[C@H](O)C1 [Example 87, ((3S)-3-hydroxypyrrolidin-1-yl)(8-(1,3-oxazol-5-yl)-6-(trifluoromethyl)imidazo[1,2-a]pyridin-3-yl)methanone] | 94% |
| O=C(c1cnc2c(-c3cnco3)cc(C(F)(F)F)cn12)N1CC[C@H](OCC(F)F)C1 [Example 90, ((3S)-3-(2,2-difluoroethoxy)pyrrolidin-1-yl)(8-(1,3-oxazol-5-yl)-6-(trifluoromethyl)imidazo[1,2-a]pyridin-3-yl)methanone] | 91% |
| O=C(c1cnc2c(-c3cnco3)cc(Cl)cn12)N1C[C@@H]2C[C@H]1CO2 [Example 92, (6-chloro-8-(1,3-oxazole-5-yl)imidazo[1,2-a]pyridin-3-yl)((1S,4S)-2-oxa-5-azabicyclo[2.2.1]hept-5-yl)methanone] | 86% |
| O=C(c1cnc2c(-c3cnco3)cc(-c3cnco3)cn12)N1C[C@@H]2C[C@H]1CO2 [Example 93, (6,8-di(1,3-oxazol-5-yl)imidazo[1,2-a]pyridin-3-yl)((1S,4S)-2-oxa-5-azabicyclo[2.2.1]hept-5-yl)methanone] | 68% |
| CCNC(=O)c1c(C)nc2c(-c3cnco3)cc(C(F)(F)F)cn12 [Example 98, N-ethyl-2-methyl-8-(1,3-oxazol-5-yl)-6-(trifluoromethyl)imidazo[1,2-a]pyridine-3-carboxamide] | 69% |
| O=C(NCc1ccccc1)c1nnc2c(-c3cnco3)cc(C(F)(F)F)cn12 [Example 107, N-benzyl-8-(1,3-oxazol-5-yl)-6-(trifluoromethyl)[1,2,4]triazolo[4,3-a]pyridine-3-carboxamide] | 89% |
| O=C(c1cnc2c(-c3cnco3)cc(C3CC3)cn12)N1C[C@@H]2C[C@H]1CO2 [Example 116, (6-cyclopropyl-8-(1,3-oxazol-5-yl)imidazo[1,2-a]pyridin-3-yl)((1S,4S)-2-oxa-5-azabicyclo[2.2.1]hept-5-yl)methanone] | 90% |
| Cc1cc(-c2cnco2)n2ncc(C(=O)N3C[C@@H]4C[C@H]3CO4)c2c1 [Example 126, (5-methyl-7-(1,3-oxazol-5-yl)pyrazolo[1,5-a]pyridin-3-yl)((1S,4S)-2-oxa-5-azabicyclo[2.2.1]hept-5-yl)methanone] | 93% |
| O=C(c1cnc2c(-n3cncn3)cc(C(F)(F)F)cn12)N1C[C@@H]2C[C@H]1CO2 [Example 128, (1S,4S)-2-oxa-5-azabicyclo[2.2.1]hept-5-yl(8-(1H-1,2,4-triazol-1-yl)-6-(trifluoromethyl)imidazo[1,2-a]pyridin-3-yl)methanone] | 86% |
| O=C(c1cnc2c(-c3cn[nH]c3)cc(C(F)(F)F)cn12)N1C[C@@H]2C[C@H]1CO2 [Example 134, (1S,4S)-2-oxa-5-azabicyclo[2.2.1]hept-5-yl(8-(1H-pyrazol-4-yl)-6-(trifluoromethyl)imidazo[1,2-a]pyridin-3-yl)methanone] | 71% |
| O=C(c1cnc2c(-c3cnco3)cc(F)cn12)N1C2CCC1COC2 [Example 138, (6-fluoro-8-(1,3-oxazol-5-yl)imidazo[1,2-a]pyridin-3-yl)(3-oxa-8-azabicyclo[3.2.1]oct-8-yl)methanone] | 82% |
| O=C(c1cnc2c(-n3cncn3)cc(C(F)(F)F)cn12)N1C2CCC1COC2 [Example 142, 3-oxa-8-azabicyclo[3.2.1]oct-8-yl(8-(1H-1,2,4-triazol-1-yl)-6-(trifluoromethyl)imidazo[1,2-a]pyridin-3-yl)methanone] | 87% |
| O=C(c1cnc2c(-c3cnco3)cc(C3CC3)cn12)N1C2CCC1COC2 [Example 143, (6-cyclopropyl-8-(1,3-oxazol-5-yl)imidazo[1,2-a]pyridin-3-yl)(3-oxa-8-azabicyclo[3.2.1]oct-8-yl)methanone] | 91% |
| CC(=O)c1cc(-c2cnco2)c2ncc(C(=O)N3C[C@@H]4C[C@H]3CO4)n2c1 [Example 155, 1-(3-((1S,4S)-2-oxa-5-azabicyclo[2.2.1]hept-5-ylcarbonyl)-8-(1,3-oxazol-5-yl)imidazo[1,2-a]pyridin-6-yl)ethanone] | 84% |
| O=C(c1cnc2c(-n3cncn3)cc(C(F)(F)F)cn12)N1C2COCC1C2 [Example 156, 3-oxa-6-azabicyclo[3.1.1]hept-6-yl(8-(1H-1,2,4-triazol-1-yl)-6-(trifluoromethyl)imidazo[1,2-a]pyridin-3-yl)methanone] | 94% |
| O=C(c1cnc2c(-c3cnco3)cc(C(F)F)cn12)N1C[C@@H]2C[C@H]1CO2 [Example 171, (6-(difluoromethyl)-8-(1,3-oxazol-5-yl)imidazo[1,2-a]pyridin-3-yl)((1S,4S)-2-oxa-5-azabicyclo[2.2.1]hept-5-yl)methanone] | 91% |
| N#C[C@H]1CCCN1C(=O)c1cnc2c(-c3cnco3)cc(C(F)(F)F)cn12 [Example 175, (2R)-1-((8-(1,3-oxazol-5-yl)-6-(trifluoromethyl)imidazo[1,2-a]pyridin-3-yl)carbonyl)pyrrolidine-2-carbonitrile] | 80% |
